Results: patent publication US20210025110A1, “ORGANIC ANTIMICROBIAL TEXTILE” (Livinguard AG, priority 2018, published 2021)

Tests used:
P. aeruginosa ATCC 9027 = test: AATCC 100-2012 antimicrobial performance of treated textile, P. aeruginosa; type: cell-based
Method: (§1) Antimicrobial performance of antimicrobial textiles according to the invention were performed following the AATCC 100-2012 test method. The AATCC 100-2012 test procedure for antimicrobial performance is described in detail in AATCC Technical Manual 2013, p. 166-168. Briefly, 3 circular swatches of 48 mm diameter were prepared from autoclaved (121° C., 15 min) textile samples, and a defined number of swatches was added to a 250 ml Erlenmeyer flask. 1 ml of prepared inoculum (in phosphate buffered water) was spot onto the swatches. […] The 0 minute contact time was immediately analyzed after inoculation. For the other contact times, the Erlenmeyer flask was sealed immediately after inoculation and incubated at 37° C. for the respective contact times. After the defined contact time, 100 ml of Dey-Engley Neutralizing broth was added to each flask, and the flask was shaken for one minute by hand. A dilution series was prepared and each dilution sample was plated on a nutrient agar. Agar plates were incubated at 37° C. for 24 and 48 hours. The Log Reduction (R) of bacteria was calculated by: B[log(number bacteria recovered from the inoculated treated test specimen swatches in the jar immediately after inoculation, i.e. at 0 contact time)]−A[log(number of bacteria recovered from the inoculated treated test specimen swatches in the jar incubated over the desired contact period)].

S. aureus ATCC 6538 = test: AATCC 100-2012 antimicrobial performance of treated textile, S. aureus; type: cell-based, Staphylococcus aureus
Method: as §1

E. coli = test: AATCC 100-2012 antimicrobial performance of treated textile, E. coli; type: cell-based

Compound | Log Reduction (R) after 30 min, P. aeruginosa (P. aeruginosa ATCC 9027; Table 2, 100% viscose, L-carnitine, 0 or 10 washes per sample ID, 30 min contact) [Log cfu/ml] | reduction of P. aeruginosa after 30 minutes (P. aeruginosa ATCC 9027; Table 2 textiles, L-carnitine on viscose, 30 min) [%] | Log Reduction (R) after 1 hour, S. aureus (S. aureus ATCC 6538; Table 1, 100% viscose, L-arginine, 10 washes, 1 hour contact) | reduction of S. aureus after 1 hour (S. aureus ATCC 6538; Table 1 textiles, L-arginine on viscose, 1 hour) | Log Reduction (R) after 10 min, P. aeruginosa (P. aeruginosa ATCC 9027; Table 1, 100% viscose, L-arginine, 10 washes, 10 min contact) [Log cfu/ml] | reduction of P. aeruginosa after 10 minutes (P. aeruginosa ATCC 9027; Table 1 textiles, L-arginine on viscose, 10 min) [%] | reduction of E. coli after 24 hours (E. coli; Table 10, L-arginine 12% on cotton) [%] | Log Reduction (R) after 24 hours against E. coli, wash cycle 0 (unwashed) (E. coli; Table 10, 100% cotton, L-arginine 120 gpl, liquor pH per sample ID, unwashed, 24 hours) [Log cfu/ml]
C[N+](C)(C)C[C@H](O)CC(=O)O [L-carnitine] | 2.82 | > 99 | – | – | – | – | – | –
N=C(N)NCCC[C@H](N)C(=O)O [L-arginine] | – | – | about 1 Log cfu/ml | about 90% | 2.76 | > 99 | > 99.99 | > 4.41
